Measured values reported in ChEMBL document CHEMBL1140386, “Pharmacophore-based design of HIV-1 integrase strand-transfer inhibitors” (J Med Chem, 2005).

Assays:
[1] = biological target: T1, Human immunodeficiency virus type 1 integrase (Human immunodeficiency virus 1, UniProt Q7ZJM1)
Description: Strand transfer inhibitory activity against HIV-1 integrase

[2] = test system: MT4; assay: Cytotoxic concentration required to reduce MT-4 cell viability; format: functional; conditions: Homo sapiens
[3] = biological target: T1, Human immunodeficiency virus type 1 integrase; assay: In vitro concentration required to inhibit the overall HIV-1 integrase strand transfer
[4] = test system: Human immunodeficiency virus 1; assay: Effective concentration required to reduce HIV-1-induced cytopathic effect in MT-4 cells; format: functional, organism-based; conditions: Human immunodeficiency virus 1, MT4
[5] = biological target: T1, Human immunodeficiency virus type 1 integrase; assay: In vitro concentration required to inhibit the HIV-1 integrase 3'-processing
[6] = test system: MT4; assay: Selectivity index was measured by the ratio of CC50/EC50; format: functional
[7] = biological target: T1, Human immunodeficiency virus type 1 integrase; assay: In vitro concentration required to inhibit the HIV-1 integrase strand transfer

T1 sequence (Q7ZJM1 whole entry): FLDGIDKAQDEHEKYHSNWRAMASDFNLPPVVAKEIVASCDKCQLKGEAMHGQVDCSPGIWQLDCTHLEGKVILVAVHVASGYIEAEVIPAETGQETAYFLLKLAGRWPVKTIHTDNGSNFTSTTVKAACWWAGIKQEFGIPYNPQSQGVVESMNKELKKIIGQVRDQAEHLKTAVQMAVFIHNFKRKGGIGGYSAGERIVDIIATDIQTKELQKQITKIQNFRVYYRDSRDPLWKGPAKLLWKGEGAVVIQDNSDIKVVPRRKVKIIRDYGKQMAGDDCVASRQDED

SMILES	IC50 [1] [µM]	CC50 [2] [µM]	IC50 [3] [µM]	EC50 [4] [µM]	IC50 [5] [µM]	Selectivity index [6]	IC50 [7] [µM]
O=C(O)C(=O)/C=C(\O)c1ccc(Oc2ccccc2)cc1	11.4	–	–	–	–	–	–
O=C(O)C(=O)/C=C(\O)c1cn(Cc2ccccc2)c2ccccc12	–	> 78	0.02	19.9	8.28	> 4	0.03
CCOC(=O)C(=O)/C=C(\O)c1cn(Cc2ccccc2)c2ccc(OC)cc12	–	29	0.15	6.07	162	5	0.68
O=C(O)C(=O)/C=C(\O)c1cn(Cc2ccccc2)c2ccc(Cl)cc12	–	37.2	0.01	4.78	0.97	8	0.1
COc1ccc2c(c1)c(/C(O)=C/C(=O)C(=O)O)cn2Cc1ccc(F)cc1	–	63.5	0.019	5.81	2.71	11	0.004
COc1ccc2c(c1)c(/C(O)=C/C(=O)C(=O)O)cn2Cc1ccccc1	–	86.4	0.017	5.32	2.16	16	0.021
CCOC(=O)C(=O)/C=C(\O)c1cn(Cc2ccccc2)c2ccc(Cl)cc12	–	34	0.22	4.5	10.2	8	0.03
CCOC(=O)C(=O)/C=C(\O)c1cn(Cc2ccc(F)cc2)c2ccccc12	–	27.2	1.2	9.25	> 272	3	1.5
O=C(O)C(=O)/C=C(\O)c1ccsc1Cc1ccccc1	0.18	–	–	–	–	–	–
O=C(O)C(=O)/C=C(\O)c1cn(Cc2ccc(F)cc2)c2ccccc12	–	> 74	0.002	5.31	5.3	> 14	0.015
O=C(O)C(=O)/C=C(\O)c1cccc(Br)c1	2.5	–	–	–	–	–	–
O=C(O)C(=O)/C=C(\O)c1cc(OCc2ccccc2)cc(OCc2ccccc2)c1	0.1	–	–	–	–	–	–
CCOC(=O)C(=O)/C=C(\O)c1cn(Cc2ccccc2)c2ccccc12	–	120	0.76	14.3	> 286	8	5.4
O=C(O)C(=O)/C=C(\O)c1cn(Cc2ccc(F)cc2)c2ccc(Cl)cc12	–	53.4	0.2	2.78	1.59	19	0.01
CCOC(=O)C(=O)/C=C(\O)c1cn(Cc2ccc(F)cc2)c2ccc(Cl)cc12	–	26.5	0.39	3.42	11.5	8	0.07
COc1cc(Cc2ccccc2)cc(/C(O)=C/C(=O)C(=O)O)c1	0.14	–	–	–	–	–	–
CCC(=O)C(=O)/C=C(\O)c1c[nH]c2ccc(Cl)cc12	6.9	–	–	–	–	–	–
CCOC(=O)C(=O)/C=C(\O)c1cn(Cc2ccc(F)cc2)c2ccc(OC)cc12	–	127	0.22	14.3	131	9	0.8
O=C(NCc1ccc(F)cc1)c1nc(N2CCCCS2(=O)=O)c2cccnc2c1O	–	2.15	0.0005	0.0047	0.12	457	0.0025
O=C(/C=C(\O)c1c[nH]c2ccc(Cl)cc12)c1nc[nH]n1	2	–	–	–	–	–	–

Further lines, with some results ahead:

IC50 [1] [µM]	SMILES	CC50 [2] [µM]	IC50 [3] [µM]	EC50 [4] [µM]	IC50 [5] [µM]	Selectivity index [6]	IC50 [7] [µM]
100	CCCCOC(=O)C(=O)/C=C(\O)c1cccn1Cc1ccc(F)cc1	–	–	–	–	–	–
0.01	O=C(O)C(=O)/C=C(\O)c1cccc(Cc2ccccc2)c1	–	–	–	–	–	–
0.1	COc1ccc(Cc2ccccc2)cc1/C(O)=C/C(=O)C(=O)O	–	–	–	–	–	–
0.5	O=C(O)C(=O)/C=C(\O)c1ccc(Cc2ccccc2)s1	–	–	–	–	–	–
0.15	COc1ccc(/C(O)=C/C(=O)C(=O)O)cc1Cc1ccccc1	–	–	–	–	–	–
0.25	O=C(O)C(=O)/C=C(\O)c1cccc(Cc2cccc(F)c2)c1	–	–	–	–	–	–
100	CC(C)OC(=O)C(=O)/C=C(\O)c1cccn1Cc1ccc(F)cc1	–	–	–	–	–	–
0.22	O=C(O)C(=O)/C=C(\O)c1cccn1Cc1ccccc1	–	–	–	–	–	–
0.04	NC(=O)C(=O)Nc1nc(C(=O)NCc2ccc(F)cc2)c(O)c2ncccc12	–	–	–	–	–	–
100	O=C(O)C(=O)/C=C(\O)c1ccnc2ccccc12	–	–	–	–	–	–
